# From patent US12552826B2, “PRMT5 inhibitors” (Merck Sharp & Dohme LLC, priority 2018, dated 2026)
# pEC50: −log10 of the molar value.
# Biological target: T1, PRMT5 (Homo sapiens, UniProt O14744)
# T1 construct: endogenous in cells; host or cells: MCF-7
# Experiment: PRMT5 Cell Target Engagement (TE) Assay
# Format: cell-based
# Conditions: MCF-7 cells, 3 days treatment, nuclear SDMA by high content imaging
# Text: The PRMT5 TE assay is a biomarker assay for identifying compounds that inhibit symmetric dimethylation of arginine (SDMA) of PRMT5 substrates. The following substrates have been reported for PRMT5: Histone H2A and H4 R3, Histone H3 R2, Histone H3 R8, spliceosome Sm proteins, ribosomal protein RPS10, p53, FEN1, nucleoplasmin, nucleolin, EGFR and EBNA. The assay will focus on detecting symmetrically dimethylated nuclear proteins using high content imaging technology. Detection of the expression of symmetrically dimethylated nuclear proteins is through a mixture of primary rabbit monoclonal antibodies to SDMA (CST 13222), which in turn recognized by an Alexafluor 488 dye-conjugated anti-rabbit IgG secondary antibody. The IN Cell Analyzer 2200 or Opera-Phenix measures nuclear Alexafluor 488 fluorescent dye intensity that is directly related to the level of expression of symmetrically dimethylated nuclear proteins at the single cell level. Nuclear AF488 dye intensities are compared to the mean value for DMSO treated cells (MIN) to report percent of inhibition for each compound-treated well.
# In this assay, the cell potency (EC50) of each compound was determined from a ten point (1:3 serial dilution; top compound concentration of 10000 nM) titration curve using the following outlined procedure. Each well of a BD falcon collagen coated black/clear bottom 384-well plate was seeded with 4000 MCF-7 cells in 30 μl media and allowed to attach for 5 hours. Media is ATCC-formulated Eagle's Minimum Essential Medium, Catalog No. 30-2003. The following components were added to the base medium: 0.01 mg/mL human recombinant insulin; fetal bovine serum to a final concentration of 10%. Additional 30 μl of media containing 2× compounds were added to each well. Cells were treated for 3 days in 37° C. CO2 incubator. On day 3, cells were fixed with Cytofix, permeabilized with 0.4% Triton-X-100/Cytofix, and washed with D-PBS without Ca/Mg. Cells were blocked with Licor Odessey blocking reagent for 1 hour at room temperature, followed by incubation with anti-SDMA (1:1000) antibody at 4° C. overnight. 1° antibody was removed, followed by three washings with DPBS without Ca/Mg and 0.05% Tween20. Hoechst (5 μg/mL), Cell Mask deep stain (1:2000) and Alexa488-conjugated goat anti-rabbit IgG (2 μg/mL) was added for 1 hour at room temperature. A final washing step (three washes) was performed before sealing plate for imaging on In Cell Analyzer 2200 or Opera-Phenix. Images from analyzer were uploaded to Columbus for image analysis. IC50 values were determined by 4 parameters robust fit of percent fluorescence units vs. (Log10) compound concentrations.
# T1 sequence (O14744 whole entry): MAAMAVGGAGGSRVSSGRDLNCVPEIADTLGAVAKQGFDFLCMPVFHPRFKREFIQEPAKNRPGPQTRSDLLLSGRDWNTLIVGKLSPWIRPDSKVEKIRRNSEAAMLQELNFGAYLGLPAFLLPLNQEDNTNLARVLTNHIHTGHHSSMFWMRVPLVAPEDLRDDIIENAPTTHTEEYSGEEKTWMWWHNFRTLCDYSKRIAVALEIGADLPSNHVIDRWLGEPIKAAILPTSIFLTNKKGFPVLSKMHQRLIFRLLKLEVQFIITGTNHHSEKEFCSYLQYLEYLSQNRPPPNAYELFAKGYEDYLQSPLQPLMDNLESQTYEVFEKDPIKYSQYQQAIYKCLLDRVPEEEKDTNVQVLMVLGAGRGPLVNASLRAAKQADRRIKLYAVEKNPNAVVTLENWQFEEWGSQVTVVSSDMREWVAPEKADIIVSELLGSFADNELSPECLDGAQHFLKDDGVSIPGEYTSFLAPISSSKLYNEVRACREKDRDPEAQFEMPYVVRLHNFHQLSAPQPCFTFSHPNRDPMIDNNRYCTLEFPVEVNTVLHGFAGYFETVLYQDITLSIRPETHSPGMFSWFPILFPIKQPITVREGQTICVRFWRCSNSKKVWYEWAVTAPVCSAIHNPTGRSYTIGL
# T1 sequence (Q9BQA1 whole entry partner): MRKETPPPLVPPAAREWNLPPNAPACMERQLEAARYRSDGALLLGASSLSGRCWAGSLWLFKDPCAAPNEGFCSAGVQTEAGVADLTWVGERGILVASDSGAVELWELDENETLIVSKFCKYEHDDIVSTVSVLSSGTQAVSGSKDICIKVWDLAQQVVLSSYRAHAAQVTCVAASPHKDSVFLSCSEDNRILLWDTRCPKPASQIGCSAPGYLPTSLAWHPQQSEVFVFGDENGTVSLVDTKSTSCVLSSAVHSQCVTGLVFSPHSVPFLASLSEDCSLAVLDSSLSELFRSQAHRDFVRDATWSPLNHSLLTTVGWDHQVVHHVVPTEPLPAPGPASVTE
row,SMILES,pEC50
1,"C[C@H](c1cc(F)cc(C(F)F)c1)[C@H]1O[C@@H](n2ccc3c(N)ncnc32)[C@H](O)[C@]1(C)O (single isomer, unassigned) [Example 84]",6.60
2,"C[C@@]1(O)[C@@H]([C@@H](O)c2cc(C(F)F)c(F)c3c2CNCC3)O[C@@H](n2ccc3c(N)ncnc32)[C@@H]1O [Example 9, (2R,3S,4R,5R)-5-(4-amino-7H-pyrrolo[2,3-d]pyrimidin-7-yl)-2-((S)-(6-(difluoromethyl)-5-fluoro-1,2,3,4-tetrahydroisoquinolin-8-yl)(hydroxy)methyl)-3-methyltetrahydrofuran-3,4-diol]",6.80
3,"C[C@@]1(O)[C@@H]([C@@H](O)c2cc(F)cc(C(F)(F)F)c2)O[C@@H](n2ccc3c(N)ncnc32)[C@@H]1O [Example 59, 7-{(5S)-5-C-[3-fluoro-5-(trifluoromethyl)phenyl]-3-C-methyl-beta-D-ribofuranosyl}-7H-pyrrolo[2,3-d]pyrimidin-4-amine]",< 5.00
4,"C[C@@]1(O)[C@@H]([C@H](O)c2ccc(F)cc2Cl)O[C@@H](n2ccc3c(N)ncnc32)[C@@H]1O [Example 48, 7-[(5R)-5-C-(2-chloro-4-fluorophenyl)-3-C-methyl-beta-D-ribofuranosyl]-7H-pyrrolo[2,3-d]pyrimidin-4-amine]",< 5.00
5,"Cc1ccccc1[C@@H](O)[C@H]1O[C@@H](n2ccc3c(N)ncnc32)[C@H](O)[C@]1(C)O [Example 40, 7-[(5R)-3-C-methyl-5-C-(2-methylphenyl)-beta-D-ribofuranosyl]-7H-pyrrolo[2,3-d]pyrimidin-4-amine]",5.64
6,"C[C@]1(O)[C@@H](O)[C@H](n2ccc3c(N)ncnc32)O[C@@H]1[C@](C)(O)c1cccc(C(F)F)c1 [Example 62, 7-{6-deoxy-5-C-[3-(difluoromethyl)phenyl]-3-C-methyl-alpha-L-talofuranosyl}-7H-pyrrolo[2,3-d]pyrimidin-4-amine]",8.03

# Other lines, results leading:
row,pEC50,SMILES
1,7.80,"C[C@@]1(O)[C@@H]([C@H](O)c2cc(F)cc(C(F)F)c2)O[C@@H](n2ccc3c(N)ncnc32)[C@@H]1O [Example 4, (2R,3S,4R,5R)-5-(4-amino-7H-pyrrolo[2,3-d]pyrimidin-7-yl)-2-((R)-(3-(difluoromethyl)-5-fluorophenyl)(hydroxy)methyl)-3-methyltetrahydrofuran-3,4-diol]"
2,5.30,"C[C@@]1(O)[C@@H]([C@@H](O)c2cc(F)cc(C(F)F)c2)O[C@@H](n2ccc3c(N)ncnc32)[C@@H]1O [Example 5, (2R,3S,4R,5R)-5-(4-amino-7H-pyrrolo[2,3-d]pyrimidin-7-yl)-2-((S)-(3-(difluoromethyl)-5-fluorophenyl)(hydroxy)methyl)-3-methyltetrahydrofuran-3,4-diol]"
3,< 5.00,"C[C@@]1(O)[C@@H]([C@@H](O)c2ccc(F)c(F)c2)O[C@@H](n2ccc3c(N)ncnc32)[C@@H]1O [Example 2, (2R,3S,4R,5R)-5-(4-amino-7H-pyrrolo[2,3-d]pyrimidin-7-yl)-2-((S)-(3,4-difluorophenyl)(hydroxy)methyl)-3-methyltetrahydrofuran-3,4-diol]"
4,< 5.00,"C[C@@]1(O)[C@@H]([C@@H](O)c2ccccc2)O[C@@H](n2ccc3c(N)ncnc32)[C@@H]1O [Example 12, 7-[(5S)-3-C-methyl-5-C-phenyl-beta-D-ribofuranosyl]-7H-pyrrolo[2,3-d]pyrimidin-4-amine]"
5,< 5.00,"C[C@@]1(O)[C@@H]([C@@H](O)c2ccnc(C(F)F)c2)O[C@@H](n2ccc3c(N)ncnc32)[C@@H]1O [Example 79, 7-{(5S)-5-C-[2-(difluoromethyl)pyridin-4-yl]-3-C-methyl-beta-D-ribofuranosyl}-7H-pyrrolo[2,3-d]pyrimidin-4-amine]"
6,8.17,"C[C@@]1(O)[C@@H]([C@H](O)c2cc(F)cc(C(F)F)c2F)O[C@@H](n2ccc3c(N)ncnc32)[C@@H]1O [Example 6, (2R,3S,4R,5R)-5-(4-amino-7H-pyrrolo[2,3-d]pyrimidin-7-yl)-2-((R)-(3-(difluoromethyl)-2,5-difluorophenyl)(hydroxy)methyl)-3-methyltetrahydrofuran-3,4-diol]"
